Source: US20220127267A1, “THIENO[3,2-B] PYRROLE[3,2-D]PYRIDAZINONE DERIVATIVES AND THEIR USE AS PKM2 DERIVATIVES FOR THE TREATMENT OF CANCER, OBESITY AND DIABETES RELATED DISORDERS” (Agios Pharmaceuticals, Inc., priority 2019, published 2022)

Key:
[1] = biological target: PKR K410E (Homo sapiens, UniProt P30613, K410E); experiment: PKR Mutant Assay (K410E), LDH-coupled, absorbance 340 nm; format: biochemical; conditions: mutant PKR K410E enzyme activation
Protocol: (§1) PKR (WT or mutant) enzyme stock solution was diluted to prepare a 1.25× Reaction Mix (without ADP). 1 μL of test compound was first added to the wells followed by 40 μL of 1.25× Reaction Mix (without ADP) and incubated at room temperature (25° C.) for 60 min. The reaction was initiated with 10 μL ADP, bringing the final Reaction Mix to 1x, and the reaction progress was measured as changes in absorbance at 340 nm wavelength at room temperature.
(§2) Test compound preparation: Test compounds were prepared at 50× final concentration in DMSO. 1 to 3 dilutions were made for 11 points (for example 50 μL of 5000 μM compound was added to 100 μL 100% DMSO to yield a 1667 μM, 50 μL of this added to 100 μL DMSO to yield 556 μM, and so forth). The compounds were added to the assay as a 1 to 50 dilution (1 μL in 50 μL) to yield a top concentration of 100 μM, decreasing 3-fold for 11 points.
(§3) Reaction Mix: PKR (1.25-1000 ng/well, 0.025-20 μg/ml depending on the PKR mutant), ADP (0.05-2.3 mM depending on the PKR mutant), PEP (0.031-2 mM depending on the PKR mutant), NADH (180 μM), LDH (0.005 U/μL, Sigma #L3888), 1 mM DTT, 0.03% BSA in 1× Reaction Buffer
(§4) Reaction Buffer: 100 mM KCl, 50 mM Tris pH 7.5, 5 mM MgCl2.

[2] = biological target: PKR WT (Homo sapiens, UniProt P30613); experiment: PKR enzyme assay (WT), LDH-coupled, absorbance 340 nm; format: biochemical; conditions: wild type PKR enzyme activation
Protocol: as §1, §2, §3, §4

[3] = test system: RBCs; experiment: Cell Based ATP Assay in purified red blood cells (Cell-Titer-Glo); design: species or system human; conditions: wild type PKR, ATP levels in RBCs, overnight at 37° C.; for AC50: Homo sapiens, Erythrocyte
Protocol: Fresh blood drawn from healthy volunteers into K2EDTA tubes was collected. Whole blood was pelleted by spinning at 500 g for 10 minutes. The transfusion bag port was cut off Purecell leukocyte reduction neofilter (Fisher NC0267633) one (1) inch above filter. A 10 ml syringe barrel was attached to the remaining cut tubing attached to the neofilter. The plasma layer was removed from the pellet of the whole blood and the pellet was resuspended in 2× volume of phosphate buffered saline (PBS). 9 ml re-suspended blood cell pellet was transferred to a 10 ml syringe that was attached to the neofilter. The whole blood was allowed to gravity flow through filter until all fluid ran through upper tubing into a filter disc. The plunger was added to the syringe. The filter was inverted and air was plunged through the syringe filter system. A new 5 ml syringe was used to remove filtered RBCs from the bag by the syringe port. Purified RBCs were transferred to a 5 ml snap cap tube that had been incubated on ice. The 5 ml snap cap tube was spun at 500 g for 10 minutes at 15 C. Supernatant was aspirated and resuspended in AGAM (1×PBS, 1% glucose, 170 mg/L adenine, 5.25 g/L mannitol) at a density of 4×10^9 cells/mL.
For cell based ATP assays, the compound as described herein was prepared in 100% DMSO as a 10 mM stock. Serial dilutions (1:4) were performed in 96-well V-bottom storage plate and then added 1:100 to 96-well V-bottom plates containing AGAM. 10 μL/well of compound diluted in AGAM was added to black clear bottom assay plates. RBCs were diluted in AGAM media to a density of 1×10^7 cells/mL before added 90 μL/well to black clear bottom assay plates (final compound concentration at 0.1% DMSO concentration). Assay plates were sealed using aluminum foil seals and incubated overnight at 37° C. in a humidified chamber. ATP levels were read out using Cell-Titer-Glo (Promega).

[4] = biological target: PK R510Q (Homo sapiens, UniProt P30613, R510Q); experiment: PKR Mutant Assay (R510Q), LDH-coupled, absorbance 340 nm; format: biochemical; conditions: mutant PKR R510Q enzyme activation
Protocol: as §1, §2, §3, §4

Sequence of PKR K410E (P30613 whole entry K410E): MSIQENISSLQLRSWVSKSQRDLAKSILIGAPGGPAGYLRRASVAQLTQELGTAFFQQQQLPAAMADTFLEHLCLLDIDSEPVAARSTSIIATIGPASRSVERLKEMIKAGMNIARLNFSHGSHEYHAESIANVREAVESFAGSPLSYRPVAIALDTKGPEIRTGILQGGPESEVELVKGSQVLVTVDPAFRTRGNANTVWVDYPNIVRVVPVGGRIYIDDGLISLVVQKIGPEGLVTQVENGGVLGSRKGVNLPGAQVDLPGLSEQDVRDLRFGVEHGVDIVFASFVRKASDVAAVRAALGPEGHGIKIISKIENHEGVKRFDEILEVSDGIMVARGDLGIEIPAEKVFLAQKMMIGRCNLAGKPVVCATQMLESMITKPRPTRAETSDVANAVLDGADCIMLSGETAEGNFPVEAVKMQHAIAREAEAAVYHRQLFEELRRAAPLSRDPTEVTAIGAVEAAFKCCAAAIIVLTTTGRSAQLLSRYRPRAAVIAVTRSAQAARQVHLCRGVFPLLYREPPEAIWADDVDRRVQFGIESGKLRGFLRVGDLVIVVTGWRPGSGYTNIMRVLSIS
Sequence of PKR WT (P30613 whole entry): as the sequence (P30613 whole entry K410E) above, with E410K counted along it
Sequence of PK R510Q (P30613 whole entry R510Q): as the sequence (P30613 whole entry K410E) above, with E410K, R510Q counted along it

| SMILES | AC50 [1] [nM] | AC50 [2] [nM] | AC50 [3] [nM] | AC50 [4] [nM] | PKR WT AC50 [2] | PK R510Q AC50 [4] | Cell based ATP assay AC50 [3] | PKR K410E AC50 [1] |
| --- | --- | --- | --- | --- | --- | --- | --- | --- |
| Cc1c2c(=O)n(Cc3cccc(N)n3)ncc2c2sc(Cc3cc[nH]n3)cn12 [Cpd 17] | < 300 | < 300 | ≤ 1000 | < 300 | – | – | – | – |
| Cc1cccc(Cn2ncc3c4sc(Cc5ncco5)cc4n(C)c3c2=O)c1 [Cpd 5] | < 300 | < 300 | ≤ 1000 | < 300 | – | – | – | – |
| Cn1c2ccc(S(=O)(=O)c3ccccc3)cc2c2cnn(Cc3cccc(C(N)=O)c3)c(=O)c21 [Cpd 57] | > 800 | 301 to 800 | > 1000 | < 300 | – | – | – | – |
| Cn1c2cc(S(C)(=O)=O)ccc2c2cnn(Cc3cccc(C(N)=O)c3)c(=O)c21 [Cpd 53] | 301 to 800 | 301 to 800 | > 1000 | < 300 | – | – | – | – |
| COC(=O)c1ccc2c3cnn(Cc4cccc(OC)c4)c(=O)c3n(C)c2c1 [Cpd 40] | < 300 | – | – | – | No Fit | No Fit | – | – |
| COc1cccc(Cn2ncc3c(c(C#N)n4cc(C)sc34)c2=O)c1 [Cpd 11] | < 300 | < 300 | – | < 300 | – | – | No Fit | – |
| Cc1c2c(=O)n(Cc3cccc(C#N)c3)ncc2c2sc(Cc3ncco3)cn12 [Cpd 19] | < 300 | 301 to 800 | > 1000 | > 800 | – | – | – | – |
| Cc1c2c(=O)n(Cc3ccn(C)n3)ncc2n2cc(CO)sc12 [Cpd 23] | > 800 | > 800 | > 1000 | > 800 | – | – | – | – |
| Cn1ccc(Cn2ncc3c4cc(Cc5cscn5)ncc4n(C)c3c2=O)n1 [Cpd 67] | < 300 | < 300 | ≤ 1000 | < 300 | – | – | – | – |
| Cc1c2c(=O)n(Cc3cscn3)ncc2c2sc(Cc3cccc4c[nH]nc34)cn12 [Cpd 20] | < 300 | < 300 | ≤ 1000 | < 300 | – | – | – | – |
| COc1cccc(Cn2ncc3c(c(Br)n4cc(C)sc34)c2=O)c1 [Cpd 68] | < 300 | < 300 | > 1000 | < 300 | – | – | – | – |
| Cn1cc(S(=O)(=O)c2ccc3c(c2)c2cnn(Cc4cccc(C(N)=O)c4)c(=O)c2n3C)cn1 [Cpd 55] | < 300 | 301 to 800 | > 1000 | < 300 | – | – | – | – |
| Cn1ccc(Cn2ncc3c4ccc(Cc5cscn5)cc4n(C)c3c2=O)n1 [Cpd 58] | < 300 | < 300 | ≤ 1000 | < 300 | – | – | – | – |
| COc1cccc(Cn2ncc3c4c(cnn4C)n(C)c3c2=O)c1 [Cpd 27] | – | – | – | – | No Fit | No Fit | – | No Fit |
| Cn1c2cc(Cc3cccc4cn[nH]c34)sc2c2cnn(Cc3cscn3)c(=O)c21 [Cpd 6] | < 300 | < 300 | ≤ 1000 | < 300 | – | – | – | – |
| Cn1c2cc(S(=O)(=O)c3cc[nH]n3)ccc2c2cnn(Cc3cccc(C(N)=O)c3)c(=O)c21 [Cpd 50] | > 800 | 301 to 800 | > 1000 | < 300 | – | – | – | – |

| SMILES | AC50 [1] [nM] | AC50 [2] [nM] | AC50 [3] [nM] | AC50 [4] [nM] | PKR WT AC50 [2] | PK R510Q AC50 [4] | Cell based ATP assay AC50 [3] | PKR K410E AC50 [1] |
| --- | --- | --- | --- | --- | --- | --- | --- | --- |
| Cn1c2ccc(S(=O)(=O)c3cc[nH]n3)cc2c2cnn(Cc3cccc(C(N)=O)c3)c(=O)c21 [Cpd 49] | < 300 | < 300 | ≤ 1000 | < 300 | – | – | – | – |
| COc1cccc(Cn2ncc3c(c(C(F)(F)F)n4cc(C)sc34)c2=O)c1 [Cpd 10] | – | < 300 | – | – | – | No Fit | No Fit | No Fit |
| Cc1c2c(=O)n(Cc3ccn(C)n3)ncc2n2cc(Cc3cc[nH]n3)sc12 [Cpd 24] | < 300 | < 300 | ≤ 1000 | < 300 | – | – | – | – |
| Cn1c2cc(Cc3cscn3)sc2c2cnn(Cc3ccccn3)c(=O)c21 [Cpd 7] | < 300 | < 300 | ≤ 1000 | < 300 | – | – | – | – |
| Cc1cn2c(s1)c(C)c1c(=O)n(Cc3cc[nH]n3)ncc12 [Cpd 22] | > 800 | > 800 | – | > 800 | – | – | No Fit | – |
| COc1cccc(Cn2ncc3c(c(C)n4cc(C)sc34)c2=O)c1 [Cpd 9] | < 300 | < 300 | > 1000 | < 300 | – | – | – | – |
| COc1cccc(Cn2ncc3c4ccncc4n(C)c3c2=O)c1 [Cpd 64] | 301 to 800 | 301 to 800 | – | < 300 | – | – | – | – |
| Cn1cc(S(=O)(=O)c2ccc3c4cnn(Cc5cccc(C(N)=O)c5)c(=O)c4n(C)c3c2)cn1 [Cpd 56] | < 300 | 301 to 800 | > 1000 | < 300 | – | – | – | – |
| COc1cccc(Cn2ncc3c4nn(Cc5ccccc5)cc4n(C)c3c2=O)c1 [Cpd 28] | 301 to 800 | 301 to 800 | – | < 300 | – | – | – | – |
| Cc1c2c(=O)n(Cc3ccn(C)n3)ncc2c2sc(CO)cn12 [Cpd 14] | < 300 | < 300 | ≤ 1000 | < 300 | – | – | – | – |
| COc1cccc(Cn2ncc3c(c(C(N)=O)n4cc(C)sc34)c2=O)c1 [Cpd 12] | < 300 | < 300 | > 1000 | < 300 | – | – | – | – |
| Cc1c2c(=O)n(Cc3ccc4[nH]ncc4c3)ncc2c2sc(Cc3ccccn3)cn12 [Cpd 18] | < 300 | < 300 | ≤ 1000 | < 300 | – | – | – | – |
| Cc1cn2c(C)c3c(=O)n(Cc4ccn(C)n4)ncc3c2s1 [Cpd 21] | < 300 | < 300 | ≤ 1000 | < 300 | – | – | – | – |
| COc1cccc(Cn2ncc3c4ccc(C#N)cc4n(C)c3c2=O)c1 [Cpd 47] | < 300 | 301 to 800 | – | < 300 | – | – | – | – |
| Cc1c2c(=O)n(Cc3ccn(C)n3)ncc2c2sc(Cc3cc[nH]n3)cn12 [Cpd 15] | < 300 | < 300 | ≤ 1000 | < 300 | – | – | – | – |
| COc1cccc(Cn2ncc3c4cccc(Br)c4n(C)c3c2=O)c1 [Cpd 33] | – | – | – | – | No Fit | No Fit | – | Inhibition |
